# Test results taken from PubChem BioAssay (NCI).
#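 Dose response: 5 concentrations. Exposure: 48 h. Format: 96-well plates. Endpoint: linear interpolation; highest concentration if not reached. GI50 is the concentration that inhibits growth by half. TGI denotes the concentration required for complete inhibition of growth.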
# Tests used:
# Assay in all cases: DTP human tumour cell line panel, 48 h
# [1] = test system: SN12C renal
# [2] = test system: RPMI-8226 leukemia
# [3] = test system: BT-549 breast
# [4] = test system: NCI-H226 lung
# [5] = test system: NCI/ADR-RES ovarian
# [6] = test system: T-47D breast
# [7] = test system: SF-268 CNS
# [8] = test system: CAKI-1 renal
# [9] = test system: UACC-62 melanoma
# [10] = test system: SK-MEL-28 melanoma
# [11] = test system: NCI-H23 lung
# [12] = test system: SK-MEL-5 melanoma
# [13] = test system: K-562 leukemia
# [14] = test system: IGROV1 ovarian
# [15] = test system: HS 578T breast
# [16] = test system: A549 NSCLC
# [17] = test system: MDA-MB-435
# [18] = test system: HL-60(TB) leukemia
# [19] = test system: SK-MEL-2 melanoma
# [20] = test system: SF-539 CNS
# [21] = test system: HCT-116 colon
# [22] = test system: MDA-MB-231 breast
# [23] = test system: 786-0 renal
# [24] = test system: DU-145 prostate
# [25] = test system: HOP-92 NSCLC
# [26] = test system: M14 melanoma
# [27] = test system: RXF 393 renal
# [28] = test system: NCI-H522 lung
# [29] = test system: HT29 colon
# [30] = test system: OVCAR-4 ovarian
# [31] = test system: LOX IMVI melanoma
# [32] = test system: SR leukemia
# [33] = test system: UO-31 renal
# [34] = test system: MALME-3M melanoma
# [35] = test system: SNB-75 CNS
# [36] = test system: SF-295 CNS
# [37] = test system: MOLT-4 leukemia
# [38] = test system: HOP-62 NSCLC
# [39] = test system: PC-3 prostate
# [40] = test system: HCT-15 colon
# [41] = test system: ACHN renal
# [42] = test system: EKVX NSCLC
# [43] = test system: COLO 205 colon
# [44] = test system: OVCAR-3 ovarian
# [45] = test system: KM12 colon
# [46] = test system: MCF7 breast
# [47] = test system: SK-OV-3 ovarian
# [48] = test system: UACC-257 melanoma
# [49] = test system: U251 CNS
# [50] = test system: HCC-2998 colon
# [51] = test system: CCRF-CEM leukemia
# [52] = test system: OVCAR-8 ovarian
# [53] = test system: NCI-H460 lung
# [54] = test system: A498 renal
# [55] = test system: OVCAR-5 ovarian
# [56] = test system: SW-620 colon
smiles,measurement,setting,value
CN1CCN(c2ccc(Nc3ncc4cc5n(c4n3)C3(CCCCC3)CNC5=O)nc2)CC1,GI50,[1],1.5 µM
same,TGI,[1],12.2 µM
same,GI50,[2],0.0624 µM
same,TGI,[2],4.04 µM
same,GI50,[3],3.35 µM
same,TGI,[3],8.97 µM
same,GI50,[4],1.27 µM
same,TGI,[4],11.3 µM
same,GI50,[5],5.77 µM
same,TGI,[5],26 µM
same,GI50,[6],4.15 µM
same,TGI,[6],> 100 µM
same,GI50,[7],1.46 µM
same,TGI,[7],4.94 µM
same,GI50,[8],0.397 µM
same,TGI,[8],14.3 µM
same,GI50,[9],2.94 µM
same,TGI,[9],19.8 µM
same,GI50,[10],3.01 µM
same,TGI,[10],26 µM
same,GI50,[11],2.19 µM
same,TGI,[11],15.7 µM
same,GI50,[12],3.2 µM
same,TGI,[12],15.6 µM
same,GI50,[13],2.17 µM
same,TGI,[13],18.4 µM
same,GI50,[14],2.42 µM
same,TGI,[14],16.4 µM
same,GI50,[15],1.71 µM
same,TGI,[15],8.8 µM
same,GI50,[16],1.47 µM
same,TGI,[16],16.2 µM
same,GI50,[17],2.02 µM
same,TGI,[17],24 µM
same,GI50,[18],0.0651 µM
same,TGI,[18],3.04 µM
same,GI50,[19],4.49 µM
same,TGI,[19],21.8 µM
same,GI50,[20],2.29 µM
same,TGI,[20],6.72 µM
same,GI50,[21],1.81 µM
same,TGI,[21],11 µM
same,GI50,[22],1.34 µM
same,TGI,[22],10.5 µM
same,GI50,[23],1.53 µM
same,TGI,[23],17 µM
same,GI50,[24],3.43 µM
same,TGI,[24],17.2 µM
same,GI50,[25],1.27 µM
same,TGI,[25],18.2 µM
same,GI50,[26],1.76 µM
same,TGI,[26],11.7 µM
same,GI50,[27],1.32 µM
same,TGI,[27],3.71 µM
same,GI50,[28],9.01 µM
same,TGI,[28],31.5 µM
same,GI50,[29],0.397 µM
same,TGI,[29],19.2 µM
same,GI50,[30],2.86 µM
same,TGI,[30],15.4 µM
same,GI50,[31],0.589 µM
same,TGI,[31],10.4 µM
same,GI50,[32],0.307 µM
same,TGI,[32],3.28 µM
same,GI50,[33],0.67 µM
same,TGI,[33],12.9 µM
same,GI50,[34],0.866 µM
same,TGI,[34],15.4 µM
same,GI50,[35],1.41 µM
same,TGI,[35],4.54 µM
same,GI50,[36],3.09 µM
same,TGI,[36],18.4 µM
same,GI50,[37],0.279 µM
same,TGI,[37],3.58 µM
same,GI50,[38],1.06 µM
same,TGI,[38],12.8 µM
same,GI50,[39],0.627 µM
same,TGI,[39],28.9 µM
same,GI50,[40],2.16 µM
same,TGI,[40],13.2 µM
same,GI50,[41],0.847 µM
same,TGI,[41],12.6 µM
same,GI50,[42],2.14 µM
same,TGI,[42],14.1 µM
same,GI50,[43],0.0632 µM
same,TGI,[43],11.3 µM
same,GI50,[44],3.16 µM
same,TGI,[44],13.1 µM
same,GI50,[45],1.32 µM
same,TGI,[45],21.9 µM
same,GI50,[46],0.109 µM
same,TGI,[46],14.6 µM
same,GI50,[47],11.4 µM
same,TGI,[47],68.2 µM
same,GI50,[48],5.67 µM
same,TGI,[48],39.2 µM
same,GI50,[49],1.32 µM
same,TGI,[49],28.2 µM
same,GI50,[50],6.14 µM
same,TGI,[50],30.4 µM
same,GI50,[51],0.203 µM
same,TGI,[51],3.6 µM
same,GI50,[52],4.11 µM
same,TGI,[52],86.1 µM
same,GI50,[53],1.39 µM
same,TGI,[53],10.6 µM
same,GI50,[54],0.17 µM
same,TGI,[54],1.8 µM
same,GI50,[55],0.491 µM
same,TGI,[55],12.2 µM
same,GI50,[56],0.166 µM
same,TGI,[56],11.8 µM
